Measured values reported in US20260098863A1, “Tension-Activated Cell Tagging (TaCT)” (Emory University, priority 2022, published 2026).
Each block holds one compound with its values, some of them ahead of it.

Assays:
[1] = target: Rho-associated protein kinase (ROCK); conditions: cited from earlier work
MEF cells [2] = experiment: Y27632 dose-dependent response of TaCT / tension signal in MEF cells; format: cell-based, mouse; conditions: Y27632 pre-treatment
Description: To showcase that TaCT is an effective method to report cell receptor forces, a Rho-associated protein kinase (ROCK) inhibitor, Y27632, was used to disrupt the force transmission through cytoskeleton and measure the dose-dependent response in MEF cells. Y27632 inhibits ROCK kinases by competing with ATP binding, and further result in decreased myosin activity, destabilization of actin filament and abolished stress formation.

NIH3T3 cells [3] = experiment: TaCT signal by flow cytometry, NIH3T3 cells on TaCT substrates; format: cell-based
Experimental: FIG. 1 provides a scheme of tension-activated cell tagging (TaCT). TaCT is based on 3′ and 5′ end mechanical pulling of a DNA duplex that leads to dehybridization. The stability of a dsDNA 24 mer was evaluated as a function of applied force generated using oxDNA simulation with a loading rate of 2.81×10^3 nm/s. The exponential moving average (EMA) indicates a 41 pN dehybridization transition. Flow cytometry histograms of NIH3T3 cells cultured on TaCT substrates as well as control surfaces with (−)cholesterol, (−)RGD, and (+)LatB were obtained.
NIH3T3 cells were seeded onto the TaCT substrates, allowed to spread, and collected by gentle scraping. The TaCT signal was then measured by flow cytometry. Probes lacking RGD, probes lacking cholesterol, as well as full TaCT probes cells treated with Lat B were used as negative controls. […] Background tagging of cells due to cell spreading and proximity to the surface leads to negligible TaCT signal.

[4] = system: mouse embryonic fibroblasts; experiment: fluorescence microscopy of force-induced DNA duplex peeling under mouse embryonic fibroblasts; format: cell-based
Experimental: FIG. 4A illustrates Lat B inhibition of cells. […] RICM and Cy3B microscopy images were obtained from MEF cells incubated on peeling probe substrate after early Lat B treatment. Cells were treated with 20 μM Lat B after 15 min of plating on the substrate and imaged after 45 min of incubation.
FIG. 4B illustrates that when integrin force signals are already generated on peeling probe substrate, if the force transmission is terminated by late Lat B treatment, with additional BHQ2 peeling strand, the peeling probe can rehybridize to the duplex form. RICM and raw Cy3B microscopy images were obtained of MEF cells treated with 20 μM Lat B 50 min after seeding. The tension signal remained after 10 min of Lat B treatment and diminished after the addition of excess BHQ2 peeling strand.
The Cy3B signal was primarily localized to the cell edge, consistent with the distribution of focal adhesions (FAs) and accumulated as a function of time. The growth of Cy3B signal corresponded to the loss of Atto647N signal and confirmed the force-induced peeling mechanism. This mechanism can generate high quality maps of integrins forces independent of cholesterol conjugation to the probe. […] The observed tension signal colocalized with markers of FAs such as vinculin and phosphorylated focal adhesion kinase (FAK pY397), as well as actin stress fibers, confirming that forces were primarily transmitted by integrins within FAs. The peeling signal mirrors that of the turn-on tension gauge tether (TGT) probes but avoids termination of mechanotransduction which represents an advantage as a molecular force sensor. […] Maps accumulated mechanical events over time.

MEF cells [5] = experiment: concentration dependent incorporation of cholesterol peeling strand; format: cell-based, mouse; conditions: 0, 1, 10, 100 nM, 1 h
Experimental: FIG. 5C provides a scheme showing flow cytometry measurements of the concentration dependent incorporation of cholesterol peeling strand. MEF cells were incubated with 0, 1, 10, and 100 nM of cholesterol peeling strand for 1 h. The excess cholesterol peeling strand was washed away by spinning down in PBS three times, and the fluorescence intensity of cells was measured by a flow cytometer.
Linear relationship between cholesterol strand concentration and cell association was found, R2=0.977.
(§1) After confirming that DNA peeling consistently maps molecular traction forces, cholesterol-DNA cell tagging for TaCT was investigated. Cholesterol-DNA is contemplated to partition into the plasma membrane of cells. […] The stability of TaCT tags was examined by incubating cholesterol-single stranded DNA with cells, washing, and measuring the loss of DNA as a function of time. Approximately 20-30% of the cholesterol-tethered DNA dissociated at 90 min. Accordingly, the cells were incubated on the surface for 1 h, which allowed for focal adhesion formation and TaCT method to proceed while limiting cholesterol dissociation.

mouse platelets [6] = experiment: flow cytometry of DNA strand uptake in solution (cholesterol-DNA cell tagging); format: cell-based; conditions: 50 nM, 30 min
Experimental: FIG. 5A illustrates a scheme for making flow cytometry measurements of the DNA strands uptake in solution. Mouse platelets were incubated with 50 nM of cholesterol peeling strand, TaCT duplex, load-bearing strand, TaCT duplex lacking RGD, and load-bearing strand lacking RGD in Tyrode's buffer for 30 min and spun down three times to wash away the excess oligos. The association was measured in both Atto647N and Cy3B channels by a flow cytometer.
as §1

NIH3T3 cells [7] = experiment: cholesterol peeling strand dissociation from the cell; format: cell-based; conditions: at 90 min after washing
Experimental: FIG. 5E provides a scheme showing the measurement of cholesterol peeling strand dissociation from the cell. NIH3T3 cells were incubated with 100 nM cholesterol peeling strand for 30 min and rinsed with PBS 3 times. Cells were divided into 6 aliquots and the remaining cholesterol strand in cells was measured every 30 min for 150 min by flow cytometry.
The normalized MFI from 2 replicates was plotted to show the dissociation of cholesterol strand over time in NIH3T3 cells.
as §1

mouse platelets [8] = experiment: TaCT signal by flow cytometry, mouse platelets on TaCT surface; format: cell-based; conditions: mouse platelets seeded 30 min
Experimental: Experiments were performed to determine whether this strategy works in primary cells. […] When mouse platelets were seeded onto the TaCT surface for 30 min, a loss of Atto647N signal was noted that was coupled with an increase in Cy3B. This confirmed that platelet integrin force transmission was sufficient to mediate DNA peeling with F greater than 41 pN.

MEF cells (WT and vin−) = experiment: TaCT on co-cultured WT and vinculin null MEF cells, flow cytometry; format: cell-based, mouse
Experimental: Vinculin is an adaptor protein that localizes to FAs linking the cytoskeleton to adhesion receptors and aids in FA maturation. TaCT was performed on these two cell types separately. The vin− cells were stained with cell tracker dye, CMFDA, before plating onto TaCT substrates. To ensure that the TaCT signal is not due to differential uptake, cholesterol uptake of WT and vin− cells was measured by flow cytometry in parallel with each TaCT assay. WT cells had larger spreading area and produced more tension signal compared to vin− cells in the Cy3B channel. […] Experiments were performed to determine whether this differential tension signal could be detected when the WT and vin− were co-cultured.

[9] = FRET efficiency of surface-immobilized TaCT probes; format: physicochemical
Description: In one example, TaCT probe is comprised of a load-bearing strand and a 24mer peeling strand. […] The loading-bearing strand also incorporated an internal Cy3B dye. The complementary peeling strand was designed to release once force (F) is greater than F peel. The peeling strand termini were labeled with Atto647N and cholesterol. The TaCT probes were annealed and immobilized on streptavidin-coated glass slides. At rest, the probe is in the dsDNA form where Cy3B and Atto647N form a FRET pair. When F is greater than F peel, the Atto647N strand peels and dissociates, while the Cy3B dye on the load bearing strand is de-quenched. […] The probe density was measured at 5200 molecules/μm^2 using a quantitative fluorescence calibration, which allows one to convert the Cy3B fluorescence signal to a % peel.

IC50 (MEF cells [2]; Mus musculus, flow cytometry, ROCK inhibitor): 773 nM
Compound: C[C@@H](N)[C@H]1CC[C@H](C(=O)Nc2ccncc2)CC1 [Y27632]
literature reported IC50 values [1]: hundreds of nM to low μM
Cy3B tension signal (MEF cells [2]; microscopy): decreased Cy3B tension signal

Compound: C/C1=C/C(=O)O[C@@H]2C[C@@H](CC[C@H](C)/C=C\CC1)O[C@@](O)([C@@H]1CSC(=O)N1)C2 [Lat B, Latrunculin B, reference compound]
force positive population (NIH3T3 cells [3]; NIH3T3 cells on full TaCT probes, cells treated with Lat B): 3.5%
tension signal changes ([4]; Lat B 50 min after seeding (20 μM)): did not show tension signal changes
peeling signal ([4]; cells treated with Lat B (early, 20 μM)): significantly reduced peeling signal

Compound: Cholesterol-single stranded DNA conjugates: 24 mer peeling strand (SEQ ID NO: 2) labeled with Atto647N and cholesterol (DNA AGTTCTAAGACTTCAGAGCTCACT; DNA, backbone and methylation of C not given here; Atto647N and cholesterol on the termini)
membrane-association versus soluble conjugate concentration (MEF cells [5]): linearly proportional
effectiveness at tagging cells compared to cholesterol-double stranded DNA conjugates (mouse platelets [6]): approximately 50 fold
cholesterol-tethered DNA dissociated (NIH3T3 cells [7]): 20-30%

Compound: TaCT probe: DNA duplex: RGD/Cy3B/biotin load-bearing strand (SEQ ID NO: 1) and 24mer Atto647N, cholesterol peeling strand (SEQ ID NO: 2) (DNA 1 TTTTTTTTTTAGTGAGCTCTGAAGTCTTAGAACT; DNA 2 AGTTCTAAGACTTCAGAGCTCACT; DNA, backbone and methylation of C not given here; RGD and biotin at the two termini, internal Cy3B, peeling strand Atto647N and cholesterol)
Atto647N geometric mean fluorescence intensity (gMFI) increase compared to controls (NIH3T3 cells [3]; NIH3T3 cells incubated on TaCT): greater than 2 fold
Cy3B gMFI (NIH3T3 cells [3]; NIH3T3 cells incubated on TaCT compared to controls): did not change
force positive population (NIH3T3 cells [3]; NIH3T3 cells on substrate, 1 h, flow cytometry): 27.6%
force positive population (mouse platelets [8]): 13.3%
mechanical events with F greater than 41 pN ([4]; equivalent of % peel and probe density): approximately 47 mechanical events/μm^2
probes peeled under each cell ([4]; quantitative microscopy analysis): 0.9%
force positive population (MEF cells (WT and vin−); WT MEF cells in mixed population (co-culture)): 24.4%
force positive population (MEF cells (WT and vin−); vin− MEF cells in mixed population (co-culture)): 5.2%
Cy3B signal enhancement upon peeling [9]: greater than 10 fold
FRET efficiency ([9]; Cy3B / Atto647N pair in dsDNA form): 93.8%
